In patent US20230272357A1, “METHODS OF GENOME EDITING INCLUDING CONTROLLED OPENING OF CHROMATIN” (Wisconsin Alumni Research Foundation, priority 2021, published 2023):

Experiments:
Type in all cases: cell-based, human
[1] = test system: iPSCs; assay: Single-cell ATAC sequencing, local chromatin accessibility; conditions: upon TSA treatment, data not shown
Protocol: Briefly, 1,50,000 cells were added to a 2 mL microcentrifuge tube and centrifuged at 300 g for 45 min at 4° C. The supernatant was removed without disrupting the cell pellet, and 100 μL chilled Lysis Buffer (10 mM Tris-HCl (pH 7.4), 10 mM NaCl, 3 mM MgCl2, 0.1% Tween-20, 0.1% Nonidet® P40 Substitute, 0.01% digitonin and 1% BSA) was added and mixed 10 times. The microcentrifuge tube was then incubated on ice for 5 min. Following lysis, 1 ml chilled Wash Buffer (10 mM Tris-HCl (pH 7.4), 10 mM NaCl, 3 mM MgCl2, 0.1% Tween-20 and 1% BSA) was added and the resulting solution was mixed 5 times. Nuclei were centrifuged at 500 g for 5 min at 4° C. and the supernatant was removed without disrupting the nuclei pellet. Nuclei were resuspended in chilled Diluted Nuclei Buffer (10× Genomics; 2000153) at approximately 6,000 nuclei per μL. The resulting nuclei concentration was then determined with a Countess® II FL Automated Cell Counter using trypan blue inclusion. Nuclei were then immediately used to generate scATAC-seq libraries according to the Chromium Single Cell ATAC Reagent Kits User Guide v1.1 (10× Genomics; 000209 Rev D). Libraries were sequenced using the Illumina NovaSeq 6000 system using S1 flow cell and target depth of 30k-37k reads/nuclei. FASTQ files were aligned with Cellranger ATAC 2.0 to custom reference Human GRCh38 genome. […]

[2] = test system: HIST1H2BJ-GFP reporter iPSC nuclei; assay: Live in situ nuclear imaging of chromatin condensation (CellProfiler); conditions: TSA 0, 3.13, 6.25, 12.5 ng/mL, FIG. 1C,D
Protocol: Antibodies and Staining: All cells were fixed for 15 minutes with 4% paraformaldehyde in PBS (Sigma-Aldrich, St. Louis, Mo.) and permeabilized with 0.5% Triton™-X (Sigma-Aldrich) for >4 hours at room temperature before staining. Hoechst (H1399; Thermo Fisher Scientific, Waltham, Mass.) was used at 5 μg/mL with 15 min incubation at room temperature to stain nuclei. Primary antibodies were applied overnight at 4° C. in a blocking buffer of 5% donkey serum (Sigma-Aldrich) at the following concentrations: H3K9Me3 (ab8898; Abcam) 1:500; H3K9Ac (39918; Active Motif) 1:100; H3K27Me3 (C36B11; Cell Signaling Technology) 1:200. […]
After streamlining the gene editing strategy, the effect of TSA treatment on the gene editing efficiency of iPSCs was examined The iPSCs were pre-treated with TSA (0, 3.13, 6.25, and 12.5 ng/mL) and their nuclei imaged. […] The images were then used as inputs for a CellProfiler software pipeline to output the chromatin condensation % of the nuclei (data not shown), defined as the ratio of total heterochromatin intensity to the total nuclear intensity. […]

[3] = test system: iPSCs; assay: iPSC morphology during long-term culture of edited cells; conditions: long-term culture of the edited cells, 6.25 ng/mL TSA

In the case of `CC(/C=C/C(=O)NO)=C\[C@@H](C)C(=O)c1ccc(N(C)C)cc1` [TSA, Trichostatin A], the “Local chromatin accessibility at the off-target sites” value [1] is reported as “no significant increase”, the “Local chromatin accessibility at the on-target sites” value [1] is reported as “increase” and the “Chromatin condensation % (heterochromatin intensity to total nuclear intensity)” value [2] is reported as “decrease”. For the same compound, the iPSC morphology [3] was “no changes”.
